Assay results from PubChem BioAssay (NCI).
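Method: 48-hour compound exposure of cells in 96-well plates, five concentrations, linear interpolation of endpoints. GI50 marks 50% less growth. TGI marks complete inhibition of growth.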

Experiments:
Assay in all cases: NCI tumour cell line growth inhibition, 48 h
786-0 renal = system: 786-0 renal
A498 renal = system: A498 renal
A549 NSCLC = system: A549 NSCLC
ACHN renal = system: ACHN renal
BT-549 breast = system: BT-549 breast
CAKI-1 renal = system: CAKI-1 renal
CCRF-CEM leukemia = system: CCRF-CEM leukemia
COLO 205 colon = system: COLO 205 colon
DU-145 prostate = system: DU-145 prostate
EKVX NSCLC = system: EKVX NSCLC
HCC-2998 colon = system: HCC-2998 colon
HCT-116 colon = system: HCT-116 colon
HCT-15 colon = system: HCT-15 colon
HL-60(TB) leukemia = system: HL-60(TB) leukemia
HOP-62 NSCLC = system: HOP-62 NSCLC
HOP-92 NSCLC = system: HOP-92 NSCLC
HS 578T breast = system: HS 578T breast
HT29 colon = system: HT29 colon
IGROV1 ovarian = system: IGROV1 ovarian
K-562 leukemia = system: K-562 leukemia
KM12 colon = system: KM12 colon
LOX IMVI melanoma = system: LOX IMVI melanoma
M14 melanoma = system: M14 melanoma
MALME-3M melanoma = system: MALME-3M melanoma
MCF7 breast = system: MCF7 breast
MDA-MB-231 breast = system: MDA-MB-231 breast
MDA-MB-435 = system: MDA-MB-435
MOLT-4 leukemia = system: MOLT-4 leukemia
NCI-H226 lung = system: NCI-H226 lung
NCI-H23 lung = system: NCI-H23 lung
NCI-H460 lung = system: NCI-H460 lung
NCI-H522 lung = system: NCI-H522 lung
NCI/ADR-RES ovarian = system: NCI/ADR-RES ovarian
OVCAR-3 ovarian = system: OVCAR-3 ovarian
OVCAR-4 ovarian = system: OVCAR-4 ovarian
OVCAR-5 ovarian = system: OVCAR-5 ovarian
OVCAR-8 ovarian = system: OVCAR-8 ovarian
PC-3 prostate = system: PC-3 prostate
RPMI-8226 leukemia = system: RPMI-8226 leukemia
RXF 393 renal = system: RXF 393 renal
SF-268 CNS = system: SF-268 CNS
SF-295 CNS = system: SF-295 CNS
SF-539 CNS = system: SF-539 CNS
SK-MEL-2 melanoma = system: SK-MEL-2 melanoma
SK-MEL-28 melanoma = system: SK-MEL-28 melanoma
SK-MEL-5 melanoma = system: SK-MEL-5 melanoma
SK-OV-3 ovarian = system: SK-OV-3 ovarian
SN12C renal = system: SN12C renal
SNB-19 CNS = system: SNB-19 CNS
SNB-75 CNS = system: SNB-75 CNS
SR leukemia = system: SR leukemia
SW-620 colon = system: SW-620 colon
T-47D breast = system: T-47D breast
TK-10 renal = system: TK-10 renal
U251 CNS = system: U251 CNS
UACC-257 melanoma = system: UACC-257 melanoma
UACC-62 melanoma = system: UACC-62 melanoma
UO-31 renal = system: UO-31 renal

CCN(CC)CCCC(C)Nc1cnc(C(=O)Nc2cccc3ccc(OC)nc23)cn1 (stereo unspecified)
GI50 (786-0 renal): 1.64 µM | TGI (786-0 renal): 3.21 µM | GI50 (A498 renal): 4.52 µM | TGI (A498 renal): 18 µM | GI50 (A549 NSCLC): 2.6 µM | TGI (A549 NSCLC): 7.02 µM | GI50 (ACHN renal): 1.83 µM | TGI (ACHN renal): 3.48 µM | GI50 (BT-549 breast): 1.95 µM | TGI (BT-549 breast): 4.47 µM | GI50 (CAKI-1 renal): 1.77 µM | TGI (CAKI-1 renal): 3.76 µM | GI50 (CCRF-CEM leukemia): 2.74 µM | TGI (CCRF-CEM leukemia): 8.11 µM | GI50 (COLO 205 colon): 1.77 µM | TGI (COLO 205 colon): 3.46 µM | GI50 (DU-145 prostate): 4.24 µM | TGI (DU-145 prostate): 15.3 µM | GI50 (EKVX NSCLC): 2.52 µM | TGI (EKVX NSCLC): 8.36 µM | GI50 (HCC-2998 colon): 1.82 µM | TGI (HCC-2998 colon): 3.46 µM | GI50 (HCT-116 colon): 1.62 µM | TGI (HCT-116 colon): 3.44 µM | GI50 (HCT-15 colon): 1.95 µM | TGI (HCT-15 colon): 4.31 µM | GI50 (HL-60(TB) leukemia): 1.92 µM | TGI (HL-60(TB) leukemia): 3.9 µM | GI50 (HOP-62 NSCLC): 1.83 µM | TGI (HOP-62 NSCLC): 3.71 µM | GI50 (HOP-92 NSCLC): 6.93 µM | TGI (HOP-92 NSCLC): 21.9 µM | GI50 (HS 578T breast): 11 µM | TGI (HS 578T breast): 28.5 µM | GI50 (HT29 colon): 1.78 µM | TGI (HT29 colon): 3.51 µM | GI50 (IGROV1 ovarian): 2.09 µM | TGI (IGROV1 ovarian): 4.91 µM | GI50 (K-562 leukemia): 1.8 µM | TGI (K-562 leukemia): 6.2 µM | GI50 (KM12 colon): 3.17 µM | TGI (KM12 colon): 11.7 µM | GI50 (LOX IMVI melanoma): 1.77 µM | TGI (LOX IMVI melanoma): 3.34 µM | GI50 (M14 melanoma): 1.93 µM | TGI (M14 melanoma): 3.71 µM | GI50 (MALME-3M melanoma): 1.75 µM | TGI (MALME-3M melanoma): 3.22 µM | GI50 (MCF7 breast): 1.67 µM | TGI (MCF7 breast): 3.41 µM | GI50 (MDA-MB-231 breast): 1.73 µM | TGI (MDA-MB-231 breast): 3.45 µM | GI50 (MDA-MB-435): 1.77 µM | TGI (MDA-MB-435): 3.24 µM | GI50 (MOLT-4 leukemia): 2.04 µM | TGI (MOLT-4 leukemia): 4.67 µM | GI50 (NCI-H226 lung): 7.52 µM | TGI (NCI-H226 lung): 21.7 µM | GI50 (NCI-H23 lung): 2.44 µM | TGI (NCI-H23 lung): 5.63 µM | GI50 (NCI-H460 lung): 2.12 µM | TGI (NCI-H460 lung): 4.66 µM | GI50 (NCI-H522 lung): 1.89 µM | TGI (NCI-H522 lung): 3.79 µM | GI50 (NCI/ADR-RES ovarian): 2.62 µM | TGI (NCI/ADR-RES ovarian): 7.95 µM | GI50 (OVCAR-3 ovarian): 2.24 µM | TGI (OVCAR-3 ovarian): 5.24 µM | GI50 (OVCAR-4 ovarian): 1.98 µM | TGI (OVCAR-4 ovarian): 4.62 µM | GI50 (OVCAR-5 ovarian): 1.81 µM | TGI (OVCAR-5 ovarian): 3.78 µM | GI50 (OVCAR-8 ovarian): 2.74 µM | TGI (OVCAR-8 ovarian): 8.41 µM | GI50 (PC-3 prostate): 2.83 µM | TGI (PC-3 prostate): 10.5 µM | GI50 (RPMI-8226 leukemia): 2.45 µM | TGI (RPMI-8226 leukemia): 6.15 µM | GI50 (RXF 393 renal): 1.25 µM | TGI (RXF 393 renal): 2.86 µM | GI50 (SF-268 CNS): 11.2 µM | TGI (SF-268 CNS): 25.8 µM | GI50 (SF-295 CNS): 15 µM | TGI (SF-295 CNS): 29.9 µM | GI50 (SF-539 CNS): 1.79 µM | TGI (SF-539 CNS): 3.21 µM | GI50 (SK-MEL-2 melanoma): 1.85 µM | TGI (SK-MEL-2 melanoma): 3.68 µM | GI50 (SK-MEL-28 melanoma): 1.74 µM | TGI (SK-MEL-28 melanoma): 3.13 µM | GI50 (SK-MEL-5 melanoma): 1.77 µM | TGI (SK-MEL-5 melanoma): 3.21 µM | GI50 (SK-OV-3 ovarian): 15 µM | TGI (SK-OV-3 ovarian): 28.4 µM | GI50 (SN12C renal): 1.77 µM | TGI (SN12C renal): 3.72 µM | GI50 (SNB-19 CNS): 3.11 µM | TGI (SNB-19 CNS): 10.9 µM | GI50 (SNB-75 CNS): 10.6 µM | TGI (SNB-75 CNS): 22.8 µM | GI50 (SR leukemia): 2.27 µM | TGI (SR leukemia): 7.36 µM | GI50 (SW-620 colon): 1.78 µM | TGI (SW-620 colon): 3.43 µM | GI50 (T-47D breast): 1.85 µM | TGI (T-47D breast): 3.95 µM | GI50 (TK-10 renal): 15.4 µM | TGI (TK-10 renal): 29.7 µM | GI50 (U251 CNS): 1.81 µM | TGI (U251 CNS): 3.52 µM | GI50 (UACC-257 melanoma): 2.43 µM | TGI (UACC-257 melanoma): 5.98 µM | GI50 (UACC-62 melanoma): 1.79 µM | TGI (UACC-62 melanoma): 3.21 µM | GI50 (UO-31 renal): 1.46 µM | TGI (UO-31 renal): 2.82 µM
